Laboratory results from article PMC12147355, “Targeted destruction of follicle stimulating hormone receptor-positive cancer cells in vitro and in vivo by a lytic peptide Phor21-FSHβ conjugate” (Molecular Medicine, 2025).
Where two headings read alike, the source gives them in different places. Ends that are not written are not given here.

Key:
[1] = Body and organ weights at necropsy; conditions: nude males xenografted with HEK293-FSHR cells, Fig. S4
Description: (§6) In each experimental set, the mice were sacrificed 3 days after the last injection. Total blood was collected via heart puncture under isoflurane anesthesia. The animals were euthanized by cervical dislocation. Body weight, selected organs, xenograft weights/volumes, and sizes were recorded at the time of necropsy. The xenografts and testes were fixed in 10% neutral buffered formalin or snap-frozen in liquid nitrogen for further experiments.

LNCaP xenografts = assay: LNCaP cell xenografts in athymic nude male mice; format: in vivo; conditions: Phor21 8 mg/kg/72 h, Phor21-FSHβ 2 or 8 mg, 21 days; for growth of LNCaP xenografts (total xenograft volume at necropsy): CTX 5 mg/kg/48h, n = 10–12
Source text: (§1) All the mouse experiments were approved by the local ethics committee of the Medical University of Bialystok, Poland. Athymic nude males (Crl: NU(NCr)-Foxn1^nu, 8–10 weeks old, 20–23 g) purchased from Charles River Laboratories International, Inc. (Sulzfeld, Germany; RRID: SCR_003792) were housed two or three per cage and provided with sterilized pellet chow and water. The animals were maintained in a pathogen-free mouse colony at the Center of Experimental Medicine Animal Facility (Bialystok, Poland).
(§2) HEK293-FSHR, HEK-293, and LNCaP cells were treated with trypsin when they were nearly confluent and were harvested. The cells were centrifuged at 1100 rpm for 5 min and resuspended in sterile non-supplemented culture medium mixed 1:1 with the Matrigel® matrix (Corning, Corning, USA). The cell suspension (1 × 10^6 cells/0.2 ml - HEK293-FSHR and HEK-293 cells; 5 × 10^6 cells/0.2 ml – LNCaP cells) was injected subcutaneously into the interscapulum area. When the xenograft volume reached 150–200 mm^3 (5–8 days after implantation), the xenograft-bearing mice were randomly divided into treatment groups, as described in Suppl Table 2.
Three independent xenograft experiments were conducted. In the first set, we tested whether the Phor21-FSHβ33–53 C/S conjugate selectively targeted and destroyed FSHR-expressing HEK293-FSHR cells, using a proof-of-concept experiment. CTX was used to inhibit FSH secretion, which competed with Phor21-FSHβ33–53 C/S for FSHR-binding sites (Suppl Table 2). In the second set of experiments, we tested the specificity of the Phor21-FSHβ33–53 C/S conjugate using FSHR-negative HEK293 cells xenografted into nude mice (Suppl Table 2). Finally, in the third set of in vivo experiments, we tested whether Phor21-FSHβ33–53 C/S conjugate treatment could inhibit the growth of human prostate cancer LNCaP cell xenografts (FSHR-negative cells) by destroying FSHR-positive endothelial cells in xenograft tissues, as reported previously (Radu et al. [2010]) (Suppl Table 2). Phor21-FSHβ33–53 C/S was later on addressed as Phor21-FSHβ. […]

HEK293-FSHR xenografts = assay: HEK293-FSHR cell xenografts in athymic nude male mice; format: in vivo
Source text: as §1, §2
(§3) Three independent xenograft experiments were conducted. In the first set, we tested whether the Phor21-FSHβ33–53 C/S conjugate selectively targeted and destroyed FSHR-expressing HEK293-FSHR cells, using a proof-of-concept experiment. […]

LNCaP cells [2] = assay: CyQUANT cell proliferation assay, LNCaP cells; format: cell-based, human; conditions: CTX 1, 5, 10, or 20 µM, 48 h; three independent experiments (n = 8/experiment)
Description: (§4) Cell proliferation was determined using a CyQUANT Cell Proliferation Assay (C7026, Life Technologies, Thermo Fisher Scientific). Prior to the experiments, HEK-293, HEK293-FSHR, and LNCaP cells were seeded in 96-well plates (7000 cells/well). After overnight incubation in the culture medium, the cells were starved for 4 h in basal non-supplemented DMEM/F12. […] After incubation, the medium was removed, and the plates with cells were frozen at −80 °C overnight. After thawing at room temperature (RT), 200 µl of CyQUANT GR dye/cell lysis buffer was added to each well and incubated for 5 min at room temperature (RT) in the dark. The fluorescence was read using a WALLAC Victor 2 1420 spectrophotometer (Perkin Elmer, Waltham, Massachusetts, USA) with ~ 480 nm excitation and ~ 520 nm emission maxima. The results were subtracted from a standard curve made from bacteriophage λ DNA (ranging from 50 pg/ml to 1.0 µg/ml) in CyQUANT GR/cell lysis buffer and are presented as absolute values.

LNCaP cells [3] = assay: Caspase Glo 3/7 apoptosis assay, LNCaP cells; format: cell-based, human; conditions: CTX 20 µM, 12 h
Description: (§5) Caspase 3/7 activity was assessed using a Caspase Glo 3/7 kit (Promega) according to the manufacturer’s protocol. In brief, cells were seeded at 10,000/well in a 96-well plate, attached overnight, and treated with vehicle (CTR) or CTX (20 µM) for 12 h. Staurosporin (STS, 0.5 µM) was used as a positive inducer of caspase3/7-mediated apoptosis. The absolute luminescence was normalized to the vehicle-treated control value.

HEK-293 cells [4] = assay: Caspase Glo 3/7 apoptosis assay, HEK-293 cells; format: cell-based, human; conditions: CTX 20 µM, 12 h
Description: as §5

[5] = Serum biochemical assay (Fuji Dri-Chem NX500); format: in vivo; conditions: HEK293-FSHR xenograft mice (n=8-9); Fig S7
Description: To quantify the serum levels of glucose, γ-glutamyltransferase (GGT), alanine aminotransferase (ALT) and aspartate aminotransferase (AST), biochemical assays were performed using Fuji Dri-Chem NX500 (Fujifilm Corporation®) according to the manufacturer’s instructions (Lei et al. [2021]).

HEK-293 cells [6] = assay: CyQUANT cell proliferation assay, HEK-293 cells; format: cell-based, human; conditions: CTX 1, 5, 10, or 20 µM, 48 h; three independent experiments (n = 8/experiment)
Description: as §4

HEK293-FSHR cells [7] = assay: Caspase Glo 3/7 apoptosis assay, HEK293-FSHR cells; format: cell-based, human; conditions: CTX 20 µM, 12 h
Description: as §5

FSH = assay: Plasma FSH immunofluorometric assay in xenografted mice; format: in vivo; conditions: CTX 5 mg/kg/48h
Description: The plasma levels of FSH were analyzed via an immunofluorometric assay using the Delfia Enhancer system (PerkinElmer, Turku, Finland) according to the protocol described by van Casteren et al. (Casteren et al. [2000]). The FSH assay sensitivity was 0.1 µg/L, with an intra-assay CV of 4.3% and an interassay CV of 9.8% at 4.8 µg/L. The rat FSH standard (a gift from Dr. Albert Parlow from the National Institute of Diabetes and Digestive and Kidney Diseases, Bethesda, Maryland, USA) was diluted in Diluent II buffer (DELFIA Diluent II, PerkinElmer) to concentrations ranging from 50 ng/ml to 0.02 ng/ml for rat FSH. Enhanced fluorescence signals (DELFIA Enhancement Solution; PerkinElmer) were measured using a Victor^2 fluorometer (PerkinElmer).

HEK293-FSHR cells [8] = assay: CyQUANT cell proliferation assay, HEK293-FSHR cells; format: cell-based, human; conditions: CTX 1, 5, 10, or 20 µM, 48 h; three independent experiments (n = 8/experiment)
Description: Cell proliferation was determined using a CyQUANT Cell Proliferation Assay (C7026, Life Technologies, Thermo Fisher Scientific). […] After overnight incubation in the culture medium, the cells were starved for 4 h in basal non-supplemented DMEM/F12. The cells were then treated for 48 h with rhFSH (10, 100, or 1000 IU/L) or cetrorelix (CTX) (1, 5, 10, or 20 µM; Sigma-Aldrich), and 2.5% FSC was used as a positive control. After incubation, the medium was removed, and the plates with cells were frozen at −80 °C overnight. After thawing at room temperature (RT), 200 µl of CyQUANT GR dye/cell lysis buffer was added to each well and incubated for 5 min at room temperature (RT) in the dark. The fluorescence was read using a WALLAC Victor 2 1420 spectrophotometer (Perkin Elmer, Waltham, Massachusetts, USA) with ~ 480 nm excitation and ~ 520 nm emission maxima.

HEK-293 xenografts = assay: HEK-293 (FSHR-negative) cell xenografts in athymic nude male mice; format: in vivo; conditions: 8 mg/kg/72 h, 21 days, n = 8–12
Source text: as §1, §2, §3

[9] = mouse, in vivo
Description: as §6

Substance	spleen weight / size [1]	testis weight [1]	growth of LNCaP xenografts (total xenograft volume at necropsy) (LNCaP xenografts)	histopathological analysis of xenograft tissues (HEK293-FSHR xenografts; histology, PARP1 staining)	xenograft growth compared with the control group (total xenograft volume at necropsy) (HEK293-FSHR xenografts; nude male mice, Phor21 8 mg/kg/72 h, Phor21-FSHβ 2 or 8 mg/kg/72 h, CTX 5 mg/kg/48h, 21 days, n = 10–12)	proliferation of LNCaP cells (LNCaP cells [2])	caspase 3/7 activity in LNCaP cells (LNCaP cells [3])	caspase 3/7 activity in HEK-293 cells (HEK-293 cells [4])	serum ALT vs CTR group [5]	serum AST vs CTR group [5]	serum GGT vs CTR group [5]	proliferation of HEK-293 cells (HEK-293 cells [6])	caspase 3/7 activity in HEK293-FSHR cells (HEK293-FSHR cells [7])	FSH secretion (plasma FSH levels) (FSH; mice with HEK293-FSHR xenografts)	FSH secretion (plasma FSH levels) (FSH; mice with LNCaP xenografts)	proliferation of HEK293-FSHR cells (HEK293-FSHR cells [8])	growth of HEK-293 xenografts (total xenograft volume at necropsy) (HEK-293 xenografts)	body weight [1]	histology of LNCaP xenografts (LNCaP xenografts)	spleen weight / size [9]
cetrorelix [CTX]	increased	significantly reduced	inhibited xenograft growth	apoptosis	reduced xenograft growth	dose-dependently decreased	activated	activated	did not affect	did not affect	did not affect	dose-dependently decreased	activated	significantly decreased	inhibited FSH secretion	dose-dependently decreased				
KFAKFAKKFAKFAKKFAKFAK-NH2 [Phor21, lytic peptide Phor21 backbone, triple heptade KFAKFAK]		No significant differences	no changes														did not affect the growth	No significant differences	no changes	No significant differences
